Measured values from ChEMBL document CHEMBL1137170, “Synthesis, biophysical and biological evaluation of 3,6-bis-amidoacridines with extended 9-anilino substituents as potent G-quadruplex-binding telomerase inhibitors” (Bioorg Med Chem Lett, 2004).

Experiments:
[1] = system: Nucleic Acid; assay: Concentration required for G4-stabilisation in FRET assay; type: functional
[2] = target: Telomerase reverse transcriptase (Homo sapiens, UniProt O14746); assay: Effective concentration against telomerase by TRAP
Telomerase reverse transcriptase, sequence (O14746 whole entry): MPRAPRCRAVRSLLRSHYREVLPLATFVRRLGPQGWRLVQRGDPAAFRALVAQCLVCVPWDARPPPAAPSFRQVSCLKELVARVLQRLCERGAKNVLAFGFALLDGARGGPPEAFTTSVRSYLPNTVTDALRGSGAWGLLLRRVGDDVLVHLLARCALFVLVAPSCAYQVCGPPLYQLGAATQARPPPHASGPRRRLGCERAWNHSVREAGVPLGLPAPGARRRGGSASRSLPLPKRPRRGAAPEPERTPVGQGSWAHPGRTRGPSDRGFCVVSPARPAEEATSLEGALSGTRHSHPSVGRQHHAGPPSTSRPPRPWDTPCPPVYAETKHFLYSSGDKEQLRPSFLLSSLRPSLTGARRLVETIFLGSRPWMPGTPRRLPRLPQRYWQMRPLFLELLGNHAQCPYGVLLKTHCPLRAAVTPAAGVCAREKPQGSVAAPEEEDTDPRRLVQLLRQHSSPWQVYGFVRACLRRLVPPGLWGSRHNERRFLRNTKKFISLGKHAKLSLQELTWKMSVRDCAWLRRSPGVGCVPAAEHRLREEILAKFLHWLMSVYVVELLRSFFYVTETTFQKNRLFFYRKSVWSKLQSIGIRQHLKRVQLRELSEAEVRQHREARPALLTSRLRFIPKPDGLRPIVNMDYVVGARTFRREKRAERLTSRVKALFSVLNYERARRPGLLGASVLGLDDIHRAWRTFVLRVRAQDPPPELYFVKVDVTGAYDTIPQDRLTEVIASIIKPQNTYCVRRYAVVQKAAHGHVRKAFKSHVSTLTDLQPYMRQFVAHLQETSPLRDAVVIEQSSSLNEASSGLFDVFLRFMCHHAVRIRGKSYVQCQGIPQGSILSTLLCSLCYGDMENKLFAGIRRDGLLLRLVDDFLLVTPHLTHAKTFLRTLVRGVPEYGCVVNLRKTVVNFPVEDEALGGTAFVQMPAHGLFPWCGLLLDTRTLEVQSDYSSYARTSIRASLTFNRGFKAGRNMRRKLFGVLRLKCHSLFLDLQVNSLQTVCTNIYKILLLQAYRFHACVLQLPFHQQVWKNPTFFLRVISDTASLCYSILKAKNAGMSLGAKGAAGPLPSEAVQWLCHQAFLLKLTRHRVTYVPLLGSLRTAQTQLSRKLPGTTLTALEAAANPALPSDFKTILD

EC50 [2] [nM]	SMILES	Concentration [1] [µM]
267	O=C(CCCCC(=O)N1CCOCC1)Nc1ccc(Nc2c3ccc(NC(=O)CCN4CCCC4)cc3nc3cc(NC(=O)CCN4CCCC4)ccc23)cc1	0.54
318	O=C(CCCCC(=O)N1CCCC1)Nc1ccc(Nc2c3ccc(NC(=O)CCN4CCCC4)cc3nc3cc(NC(=O)CCN4CCCC4)ccc23)cc1	0.72
165	CN1CCN(C(=O)CCCCC(=O)Nc2ccc(Nc3c4ccc(NC(=O)CCN5CCCC5)cc4nc4cc(NC(=O)CCN5CCCC5)ccc34)cc2)CC1	0.59

The next lines start with the molecule.

SMILES	EC50 [2] [nM]	Concentration [1] [µM]
CCN(CC)CCCCCCNC(=O)CCCCC(=O)Nc1ccc(Nc2c3ccc(NC(=O)CCN4CCCC4)cc3nc3cc(NC(=O)CCN4CCCC4)ccc23)cc1	80	0.49
CN(C)c1ccc(Nc2c3ccc(NC(=O)CCN4CCCC4)cc3nc3cc(NC(=O)CCN4CCCC4)ccc23)cc1	113	0.72
CCN(CC)CCNC(=O)CCCCC(=O)Nc1ccc(Nc2c3ccc(NC(=O)CCN4CCCC4)cc3nc3cc(NC(=O)CCN4CCCC4)ccc23)cc1	98	0.46
